In the assay the target is T1, maternal embryonic leucine-zipper kinase (MELK) (Homo sapiens, UniProt Q14680).
T1 construct: recombinant MELK protein
In words: in vitro kinase assay with recombinant MELK, ten-dose curve. Format: biochemical.

T1 sequence (Q14680 whole entry): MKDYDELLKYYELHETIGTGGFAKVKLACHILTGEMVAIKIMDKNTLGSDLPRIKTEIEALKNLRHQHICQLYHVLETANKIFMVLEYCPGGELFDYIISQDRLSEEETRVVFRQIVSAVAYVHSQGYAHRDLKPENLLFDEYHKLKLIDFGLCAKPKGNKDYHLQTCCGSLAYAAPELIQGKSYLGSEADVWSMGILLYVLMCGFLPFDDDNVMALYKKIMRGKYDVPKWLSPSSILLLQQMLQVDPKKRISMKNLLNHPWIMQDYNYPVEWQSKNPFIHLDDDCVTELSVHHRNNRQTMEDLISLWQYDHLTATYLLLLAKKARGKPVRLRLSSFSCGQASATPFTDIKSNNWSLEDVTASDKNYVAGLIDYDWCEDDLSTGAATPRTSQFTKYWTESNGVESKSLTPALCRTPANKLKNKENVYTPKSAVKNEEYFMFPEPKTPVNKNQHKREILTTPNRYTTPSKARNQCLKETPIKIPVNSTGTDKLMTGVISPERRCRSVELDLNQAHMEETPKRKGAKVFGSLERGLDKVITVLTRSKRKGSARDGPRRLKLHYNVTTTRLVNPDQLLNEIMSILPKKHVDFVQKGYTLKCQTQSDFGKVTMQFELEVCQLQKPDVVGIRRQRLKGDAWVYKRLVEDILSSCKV

With `CCc1c[nH]c(=O)c2c1[nH]c1ccc3cc(OC)ccc3c12` [C1, Compound 1], the half-inhibitory concentration (IC50) worked out at 0.042 µM.
